# Measurements: patent US20140329681A1, “METHOD FOR CONTROLLING WEEDS IN SUGAR CANE FIELD” (SUMITOMO CHEMICAL COMPANY, LIMITED, priority 2011, published 2014)
# Assays:
# Amaranthus retroflexus = experiment: Pot test, herbicide sprayed on the soil surface after planting one-node stem cuttings: herbicidal efficacy; type: in vivo; conditions: Example 5; cuttings treated with strobilurin fungicides (kresoxim-methyl, azoxystrobin etc.); soil surface spray on day of planting; four weeks after application
# Description: (§1) Stem cuttings of sugar cane, 30 cm to 40 cm long, are placed in wet soil to stimulate germination. Stem cuttings on which a bud grows to about 1 cm long are selected and the stem cuttings are cut to have one node and a length of 3 cm. Plastic pots are filled with soil and Amaranthus retroflexus is seeded therein. The stem cuttings of sugar cane are planted in the soil in the pots at a depth of 2 cm. […] The test pots are then placed in a greenhouse.
# (§2) The herbicidal efficacy and phytotoxicity are determined four weeks after the application of the herbicides.
# as §1, with “3 cm. The stem cuttings are treated with clothianidin, thiamethoxam, imidacloprid, dinotefuran, nitenpyram, acetamiprid, or thiacloprid. Plastic pots” for “3 cm. Plastic pots”, “sugar cane treated with the pesticides are planted” for “sugar cane are planted”
# (§3) Stem cuttings of sugar cane, 30 cm to 40 cm long, are placed in wet soil to stimulate germination. Stem cuttings on which a bud grows to about 1 cm long are selected and the stem cuttings are cut to have one node and a length of 3 cm. The stem cuttings are treated with kresoxim-methyl, azoxystrobin, trifloxystrobin, fluoxastrobin, picoxystrobin, pyraclostrobin, dimoxystrobin, pyribencarb, metominostrobin, orysastrobin, enestrobin, pyraoxystrobin, or pyrametostrobin. Plastic pots are filled with soil and Amaranthus retroflexus is seeded therein. The stem cuttings of sugar cane treated with the fungicides are planted in the soil in the pots at a depth of 2 cm. […] The test pots are then placed in a greenhouse. The herbicidal efficacy and phytotoxicity are determined four weeks after the application of the herbicides.
# Stem cuttings of sugar cane, 30 cm to 40 cm long, are placed in wet soil to stimulate germination. Stem cuttings on which a bud grows to about 1 cm long are selected and the stem cuttings are cut to have one node and a length of 3 cm. The stem cuttings are treated with azaconazole, bitertanol, bromuconazole, cyproconazole, difenoconazole, diniconazole, epoxiconazole, fenbuconazole, fluquinoconazole, flusilazole, flutriafol, hexaconazole, imibenconazole, ipconazole, metconazole, myclobutanil, penconazole, propiconazole, prothioconazole, simeconazole, tebuconazole, tetraconazole, triadimenol, triticonazole, fenarimol, nuarimol, pyrifenox, imazalil, oxpoconazole fumarate, peforazoate, prochloraz, or triflumizole. Plastic pots are filled with soil and Amaranthus retroflexus is seeded therein. The stem cuttings of sugar cane treated with the fungicides are planted in the soil in the pots at a depth of 2 cm. […] The test pots are then placed in a greenhouse. […]
# sugar cane = experiment: Pot test, herbicide sprayed on the soil surface after planting one-node stem cuttings: phytotoxicity
# Description: as §1, §2
# as §1, with “3 cm. The stem cuttings are treated with clothianidin, thiamethoxam, imidacloprid, dinotefuran, nitenpyram, acetamiprid, or thiacloprid. Plastic pots” for “3 cm. Plastic pots”, “sugar cane treated with the pesticides are planted” for “sugar cane are planted”
# as §3
# Stem cuttings of sugar cane, 30 cm to 40 cm long, are placed in wet soil to stimulate germination. Stem cuttings on which a bud grows to about 1 cm long are selected and the stem cuttings are cut to have one node and a length of 3 cm. The stem cuttings are treated with azaconazole, bitertanol, bromuconazole, cyproconazole, difenoconazole, diniconazole, epoxiconazole, fenbuconazole, fluquinoconazole, flusilazole, flutriafol, hexaconazole, imibenconazole, ipconazole, metconazole, myclobutanil, penconazole, propiconazole, prothioconazole, simeconazole, tebuconazole, tetraconazole, triadimenol, triticonazole, fenarimol, nuarimol, pyrifenox, imazalil, oxpoconazole fumarate, peforazoate, prochloraz, or triflumizole. Plastic pots are filled with soil and Amaranthus retroflexus is seeded therein. The stem cuttings of sugar cane treated with the fungicides are planted in the soil in the pots at a depth of 2 cm. […] The test pots are then placed in a greenhouse.
# as §1, with “3 cm. The stem cuttings are treated with metalaxyl or metalaxyl-M. Plastic pots” for “3 cm. Plastic pots”
# [1] = Example 5, cuttings treated with strobilurin fungicides (kresoxim-methyl, azoxystrobin etc.), soil surface spray on day of planting, four weeks after application
Molecule,herbicidal efficacy (Amaranthus retroflexus),phytotoxicity (sugar cane; [1]),phytotoxicity (sugar cane; in vivo)
CCc1cccc(C)c1N(C(=O)CCl)[C@@H](C)COC [S-metolachlor],the control effect against the weed can be observed,no phytotoxicity problematic to sugar cane is observed,
CCc1cccc(CC)c1N(COC)C(=O)CCl [alachlor],the control effect against the weed can be observed,no phytotoxicity problematic to sugar cane is observed,
CCNc1nc(NC(C)C)nc(SC)n1 [ametryn],the control effect against the weed can be observed,,no phytotoxicity problematic to sugar cane is observed
CC(C)c1nn(C(=O)NC(C)(C)C)c(=O)n1N [amicarbazone],the control effect against the weed can be observed,no phytotoxicity problematic to sugar cane is observed,
CCNc1nc(Cl)nc(NC(C)C)n1 [atrazine],the control effect against the weed can be observed,no phytotoxicity problematic to sugar cane is observed,
CC1(C)CON(Cc2ccccc2Cl)C1=O [clomazon],the control effect against the weed can be observed,,
COc1c(Cl)ccc(Cl)c1C(=O)O.NCCOCCO [dicamba-diglycolamine],the control effect against the weed can be observed,no phytotoxicity problematic to sugar cane is observed,
CNC.COc1c(Cl)ccc(Cl)c1C(=O)O [dicamba-dimethylamine],the control effect against the weed can be observed,no phytotoxicity problematic to sugar cane is observed,
COc1c(Cl)ccc(Cl)c1C(=O)[O-].[K+] [dicamba-potassium],the control effect against the weed can be observed,no phytotoxicity problematic to sugar cane is observed,
COc1c(Cl)ccc(Cl)c1C(=O)[O-].[Na+] [dicamba-sodium],the control effect against the weed can be observed,no phytotoxicity problematic to sugar cane is observed,
COc1c(Cl)ccc(Cl)c1C(=O)O [dicamba],the control effect against the weed can be observed,no phytotoxicity problematic to sugar cane is observed,
CN(C)C(=O)Nc1ccc(Cl)c(Cl)c1 [diuron],the control effect against the weed can be observed,no phytotoxicity problematic to sugar cane is observed,
CCOc1ccccc1OS(=O)(=O)NC(=O)Nc1nc(OC)cc(OC)n1 [ethoxysulfuron],the control effect against the weed can be observed,,no phytotoxicity problematic to sugar cane is observed
COC(=O)c1c(Cl)nn(C)c1S(=O)(=O)NC(=O)Nc1nc(OC)cc(OC)n1 [halosulfuron-methyl],the control effect against the weed can be observed,no phytotoxicity problematic to sugar cane is observed,
CN(C)c1nc(=O)n(C2CCCCC2)c(=O)n1C [hexazinone],the control effect against the weed can be observed,,no phytotoxicity problematic to sugar cane is observed
Cc1cnc(C2=NC(=O)C(C)(C(C)C)N2)c(C(=O)O)c1 (centres unmarked) [imazapic],the control effect against the weed can be observed,,no phytotoxicity problematic to sugar cane is observed
COC(=O)c1ccc(I)cc1S(=O)(=O)[N-]C(=O)Nc1nc(C)nc(OC)n1.[Na+] [iodosulfuron-methyl-sodium],the control effect against the weed can be observed,no phytotoxicity problematic to sugar cane is observed,
CS(=O)(=O)c1cc(C(F)(F)F)ccc1C(=O)c1cnoc1C1CC1 [isoxaflutole],the control effect against the weed can be observed,,no phytotoxicity problematic to sugar cane is observed
CS(=O)(=O)c1ccc(C(=O)C2C(=O)CCCC2=O)c([N+](=O)[O-])c1 [mesotrione],the control effect against the weed can be observed,no phytotoxicity problematic to sugar cane is observed,
CCc1cccc(C)c1N(C(=O)CCl)C(C)COC (centres unmarked) [metolachlor],the control effect against the weed can be observed,no phytotoxicity problematic to sugar cane is observed,
CSc1nnc(C(C)(C)C)c(=O)n1N [metribuzin],the control effect against the weed can be observed,no phytotoxicity problematic to sugar cane is observed,
CCC(CC)Nc1c([N+](=O)[O-])cc(C)c(C)c1[N+](=O)[O-] [pendimethalin],the control effect against the weed can be observed,no phytotoxicity problematic to sugar cane is observed,
CCNc1nc(Cl)nc(NCC)n1 [simazine],the control effect against the weed can be observed,no phytotoxicity problematic to sugar cane is observed,
CNC(=O)N(C)c1nnc(C(C)(C)C)s1 [tebuthiuron],the control effect against the weed can be observed,no phytotoxicity problematic to sugar cane is observed,
COc1cc(OC)nc(NC(=O)[N-]S(=O)(=O)c2ncccc2OCC(F)(F)F)n1.[Na+] [trifloxysulfuron-sodium],the control effect against the weed can be observed,no phytotoxicity problematic to sugar cane is observed,
CCCN(CCC)c1c([N+](=O)[O-])cc(C(F)(F)F)cc1[N+](=O)[O-] [trifluralin],the control effect against the weed can be observed,no phytotoxicity problematic to sugar cane is observed,
bicyclopyrone,the control effect against the weed can be observed,no phytotoxicity problematic to sugar cane is observed,
